{"source": "patent US20180028712A1", "about": "“SKIN-REGENERATING MATERIAL COMPRISING SYNERGISTIC COMBINATION OF METAL OXIDES” (ARGAMAN TECHNOLOGIES LTD., priority 2015, published 2018)", "key": {"[1]": {"test_system": "Human Foreskin Fibroblasts (HFF)", "details": "24 hours following the plate scratching", "protocol": "(§1) For the treatments, the saturated solutions were diluted 1:10, 1:100, and 1:500 in the growth medium in a supernatant.\nHFF cells were thawed and passaged at least once prior to assay performance."}, "HFF cell line": {"test_system": "HFF cell line", "experiment": "Proliferation assay (Stage II), Alamar Blue viability of HFF cells", "protocol": "as §1\nHFF cells were thawed and passaged at least once prior to assay performance. Exponentially growing culture was collected, centrifuged, counted and seeded in 96-well tissue culture plate at a density of 5000 cells/well.\nThe plate was incubated overnight at 37° C., humidified 5% CO2/air., to enable cells adherence to the wells.\nThe next day, the growth medium was replaced with the test item solutions in 5% and 1% FBS and vehicle control solution to achieve the final concentrations as designated in the following plate plan (final volume of 200 μl)\nPlates were incubated for 24 hours at 37° C., humidified 5% CO2/air.\nFollowing 24 hours, the medium was replaced with fresh growth medium containing 10% of Alamar Blue."}}, "data": [{"smiles": "[Ag+].[Ag+].[Ag+].[Ag+].[O-2].[O-2].[O-2].[O-2]", "note": "[TST, tetrasilver tetroxide]", "values": [{"measurement": "observation of scratched monolayer (proliferation along the scratch)", "setting": "[1]; diluted 1:100, compared to control group", "result": "many proliferation centers along the scratch"}, {"measurement": "observation of scratched monolayer (cytotoxicity)", "setting": "[1]; saturated solution diluted 1:10", "result": "cytotoxic"}, {"measurement": "cell proliferation / cytotoxicity result in words", "setting": "HFF cell line; HFF cells, 24 hours, summary of Table 1", "result": "cytotoxic"}, {"measurement": "Number of cells (normalized)", "setting": "HFF cell line; percent viability on HFF cell line, 24 hours incubation and 4 hours with Alamar Blue, control = 100", "result": 85}]}]}
